The values that follow come from paper PMC2885599 (Current Chemical Genomics, 2010).

Test [1] has as its system unphosphorylated Met. The settings on record: cited from earlier work.
Test [2] relates to phosphorylated Met. The settings on record: read-out: IC50 on phosphorylated Met; cited from earlier work.
Test [3] has as its system phosphorylated enzyme (c-Met). The settings on record: phosphorylated vs unphosphorylated enzyme; cited from earlier work.
The target in test [4] is unphosphorylated c-Met (Homo sapiens, UniProt P08581). The test can be described thus: c-Met kinase HTRF assay, unphosphorylated form. The test is classed as biochemical. Background: TR-FRET usually uses a lanthanide donor and a delayed reading to cut background.
unphosphorylated c-Met, sequence (P08581 956-1390 limits assumed): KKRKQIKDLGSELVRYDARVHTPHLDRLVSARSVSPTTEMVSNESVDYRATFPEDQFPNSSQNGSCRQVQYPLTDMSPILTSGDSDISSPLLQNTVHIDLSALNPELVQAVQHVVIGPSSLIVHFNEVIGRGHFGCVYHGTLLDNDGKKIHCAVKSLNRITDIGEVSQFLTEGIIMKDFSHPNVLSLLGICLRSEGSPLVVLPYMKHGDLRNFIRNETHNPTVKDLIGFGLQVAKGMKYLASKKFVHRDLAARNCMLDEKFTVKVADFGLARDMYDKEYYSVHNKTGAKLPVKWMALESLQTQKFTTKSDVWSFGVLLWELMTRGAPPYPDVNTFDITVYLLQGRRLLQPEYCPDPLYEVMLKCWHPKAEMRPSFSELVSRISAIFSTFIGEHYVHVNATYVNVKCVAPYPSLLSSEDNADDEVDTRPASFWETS
Test [5] concerns the target phosphorylated c-Met (Homo sapiens, UniProt P08581). The test can be described thus: c-Met kinase HTRF assay, phosphorylated form. The settings on record: IC50 on the phosphorylated form.
Test [6] has as its system SNU5 gastric cancer cell line in which c-Met is amplified. The test can be described thus: SNU5 proliferation assay. The test is classed as cell-based. The settings on record: Homo sapiens, SNU-5, read-out: IC50 in SNU5 proliferation assays.

phosphorylated c-Met, sequence (P08581 956-1390 limits assumed): as above

On to `COc1cc2c(Oc3ccc(-c4cnc(Cc5ccccc5)n(C)c4=O)cc3F)ccnc2cc1OCCCN1CCOCC1` [AM7, 5-(3-fluoro-4-((6-(methyloxy)-7-((3-(4 morpholinyl)prpyl)oxy)-4-quinolinyl)oxy)phenyl)-3-methyl-2-(phenylmethyl)-4(3H)-pyrimidin-one], for which, in test [1], the “fold more potent on unphosphorylated Met” value is “more than 3 fold”. The IC50 is 5 nM in test [1] (read-out: IC50 on unphosphorylated Met) and 17 nM in test [2].
For the compound `CN(C[C@@H]1COCCO1)S(=O)(=O)Nc1ccc2ccc3ncc(-c4cnn(C)c4)cc3c(=O)c2c1` [MK2461], the “binds to the phosphorylated enzyme tighter” value in test [3] is reported as 6 fold.
In the case of `Cc1[nH]c(/C=C2\C(=O)Nc3ccc(S(=O)(=O)N(C)c4cccc(Cl)c4)cc32)c(C)c1C(=O)N1CCN(C)CC1` [SU11274], the “difference in potency, phosphorylated vs unphosphorylated form” value in test [4] was 55 fold. In addition, the IC50 was determined as 275 nM in test [5] and 30 nM in test [6].
